The source of these data is US7560466B2, “Methods of treating or preventing autoimmune diseases with 2,4-pyrimidinediamine compounds” (Rigel Pharmaceuticals, Inc., priority 2003, dated 2009).

Assay [1] concerns cultured human mast cells (CHMC), IgE-induced degranulation. Description: CHMC low cell density IgE activation: tryptase assay. The assay is classed as cell-based. In a few lines:
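Cord-blood CD34+-derived mucosal mast cells (SCF/IL-6 medium), 1000–1500 cells/well, preincubated with compound 1 h at 37°C, then anti-IgE stimulated 30 min at 37°C.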

Assay [2] deals with cultured human mast cells (CHMC), ionomycin-induced degranulation. Description: CHMC low cell density ionomycin activation: tryptase assay. The assay is classed as cell-based. Conditions: ionomycin activation, read-out: LD Tryptase, CHMC, Iono, 3pt.
Where [3] appears, read: low cell density CHMC, 3pt, read-out: LD Tryptase, CHMC, IgE, 3pt.
[4] abbreviates: low cell density CHMC, 8pt, read-out: LD Tryptase, CHMC, IgE, 8pt.
Where [5] appears, read: low cell density CHMC, 3-point, read-out: LD Tryptase, CHMC, IgE, 3pt.
The mark [6] stands for this setting: low cell density CHMC, 8-point, read-out: LD Tryptase, CHMC, IgE, 8pt.
The mark [7] stands for this setting: Homo sapiens, Mast cell, low cell density CHMC, 3pt, read-out: LD Tryptase, CHMC, IgE, 3pt.
The mark [8] stands for this setting: Homo sapiens, Mast cell, low cell density CHMC, 8pt, read-out: LD Tryptase, CHMC, IgE, 8pt.
[9] abbreviates: CHMC low cell density, 8pt, read-out: LD Tryptase, CHMC, IgE, 8pt.

Where a name gives a salt, the structure may show the parent alone. Read-outs that look alike come from different tables or passages of the source. A value given as a limit tells only on which side of the number the result lay.

For `COc1cc(C)c(Nc2ncc(F)c(Nc3ccc4c(c3)NC(C)(C)CO4)n2)cc1Cl` [Compound 216, N2-(3-Chloro-4-methoxy-6-methylphenyl)-N4-(3,4-dihydro-3,3-dimethyl-2H,4H-benz[1,4]oxazin-6-yl)-5-fluoro-2,4-pyrimidinediamine], the IC50 in assay [1] (setting [3]) is less than 10 µM; in assay [1] (setting [4]), less than 10 µM; in assay [2] (low cell density CHMC, 3pt) it was greater than 10 µM. Regarding `Fc1cnc(Nc2cccc(-c3ncco3)c2)nc1Nc1ccc2c(c1)NCCO2` [Compound 217, N4-(3,4-Dihydro-2H,4H-benz[1,4]oxazin-6-yl)-5-fluoro-N2-[3-(oxazol-2-yl)phenyl]-2,4-pyrimidinediamine], the IC50 in assay [1] (setting [3]) is less than 10 µM; in assay [1] (setting [4]), less than 10 µM; in assay [2] (low cell density CHMC, 3pt), greater than 10 µM.

`CC1(C)COc2ccc(Nc3nc(Nc4cccc(-c5ncco5)c4)ncc3F)cc2N1` [Compound 218, N4-(3,4-Dihydro-3,3-dimethyl-2H,4H-benz[1,4]oxazin-6-yl)-5-fluoro-N2-[3-(oxazol-2-yl)phenyl]-2,4-pyrimidinediamine]: the IC50 in assay [1] (setting [3]) is less than 10 µM; in assay [1] (setting [4]) it was less than 10 µM; in assay [2] (low cell density CHMC, 3pt) it was greater than 10 µM. For the molecule `CNC(=O)COc1cccc(Nc2ncc(F)c(Nc3ccc4c(n3)NC(=O)C(C)(C)O4)n2)c1` [Compound 992, N4-(2,2-Dimethyl-3-oxo-4H-5-pyrid[1,4]oxazin-6-yl)-5-fluoro-N2-[3-(N-methylamino)carbonylmethyleneoxyphenyl]-2,4-pyrimidinediamine (+)-Camphorsulfonic Acid Salt], the IC50 in assay [2] (CHMC low cell density, 3pt) is greater than 10 µM. For the molecule `Cn1ncc2ccc(Nc3ncc(F)c(Nc4ccc5c(n4)NC(=O)C(C)(C)O5)n3)cc21` [Compound 1056, N4-(2,2-Dimethyl-3-oxo-4H-5-pyrid[1,4]oxazin-6-yl)-5-fluoro-N2-[1-methylindazol-6-yl]-2,4-pyrimidinediamine Hydrogen Chloride Salt], in assay [2] (low cell density CHMC, 3-point), the IC50 is greater than 10 µM.

`Cc1cc(C)cc(Nc2ncc(F)c(Nc3ccc4c(n3)NC(=O)[C@H](C)O4)n2)c1` [Compound 1084, (S)—N2-(3,5-Dimethylphenyl)-5-fluoro-N4-(2-methyl-3-oxo-2H,4H-5-pyrid[1,4]oxazin-6-yl)-2,4-pyrimidinediamine]: the IC50 in assay [1] (setting [5]) is greater than 10 µM; in assay [1] (setting [6]), less than 10 µM. With `Fc1cnc(Nc2cccc(-c3cnco3)c2)nc1Nc1ccc2c(n1)NCCO2` [Compound 1132, N4-(3,4-Dihydro-2H,4H-5-pyrid[1,4]oxazin-6-yl)-5-fluoro-N2-[3-(oxazol-5-yl)phenyl]-2,4-pyrimidinediamine], the IC50 in assay [1] (setting [6]) was less than 10 µM. For the molecule `CC(=O)N1CCN(c2ccc(Nc3ncc(F)c(Nc4ccc5c(n4)NCCO5)n3)cc2)CC1` [Compound 1134, N2-[4-(4-Acetylpiperazino)phenyl]-N4-(3,4-dihydro-2H,4H-5-pyrid[1,4]oxazin-6-yl)-5-fluoro-2,4-pyrimidinediamine], the IC50 in assay [1] (setting [5]) and in assay [1] (setting [6]) was less than 10 µM each time.

On to `CCOC(=O)N1CCN(c2ccc(Nc3ncc(F)c(Nc4ccc5c(n4)NCCO5)n3)cc2)CC1` [Compound 1135, N4-(3,4-Dihydro-2H,4H-5-pyrid[1,4]oxazin-6-yl)-N2-[4-(4-ethoxycarbonylpiperazino)phenyl]-5-fluoro-2,4-pyrimidinediamine], for which the IC50 in assay [1] (setting [5]) and in assay [1] (setting [6]) was less than 10 µM throughout. In the case of `Fc1cnc(Nc2cccc(N3CCOCC3)c2)nc1Nc1ccc2c(n1)NCCO2` [Compound 1136, N4-(3,4-Dihydro-2H,4H-5-pyrid[1,4]oxazin-6-yl)-5-fluoro-N2-(3-morpholinophenyl)-2,4-pyrimidinediamine], the IC50 in assay [1] (setting [5]) and in assay [1] (setting [6]) was less than 10 µM in each case. Consider `CC(=O)N1CCN(c2cccc(Nc3ncc(F)c(Nc4ccc5c(n4)NCCO5)n3)c2)CC1` [Compound 1137, N2-[3-(4-Acetylpiperazino)phenyl]-N4-(3,4-dihydro-2H,4H-5-pyrid[1,4]oxazin-6-yl)-5-fluoro-2,4-pyrimidinediamine], for which the IC50 in assay [1] (setting [5]) and in assay [1] (setting [6]) was less than 10 µM each time. Turning to `CCOC(=O)N1CCN(c2cccc(Nc3ncc(F)c(Nc4ccc5c(n4)NCCO5)n3)c2)CC1` [Compound 1138, N4-(3,4-Dihydro-2H,4H-5-pyrid[1,4]oxazin-6-yl)-N2-[3-(4-ethoxycarbonylpiperazino)phenyl]-5-fluoro-2,4-pyrimidinediamine], the IC50 in assay [1] (setting [5]) and in assay [1] (setting [6]) was less than 10 µM in each case. For `CN1CCN(c2ccc(Nc3ncc(F)c(Nc4ccc5c(n4)NCCO5)n3)cc2Cl)CC1` [Compound 1197, N2-[3-Chloro-4-(4-methylpiperazino)phenyl]-N4-(3,4-dihydro-2H,4H-5-pyrid[1,4]oxazin-6-yl)-5-fluoro-2,4-pyrimidinediamine], the IC50 in assay [1] (setting [3]) and in assay [1] (setting [4]) was less than 10 µM each time. Regarding `Cc1cc(Nc2ncc(F)c(Nc3ccc4c(n3)NCCO4)n2)ccc1N1CCN(C)CC1` [Compound 1203, N4-(3,4-Dihydro-2H,4H-5-pyrid[1,4]oxazin-6-yl)-5-fluoro-N2-[3-methyl-4-(4-methylpiperazino)phenyl]-2,4-pyrimidinediamine], the IC50 in assay [1] (setting [3]) and in assay [1] (setting [4]) was less than 10 µM throughout. On to `C[C@@H]1Oc2ccc(Nc3nc(Nc4ccc(C(=O)N=CC(=O)O)cc4)ncc3F)cc2NC1=O` [Compound 1264], for which the IC50 in assay [1] (setting [7]) was greater than 10 µM. For `C[C@H]1Oc2ccc(Nc3nc(Nc4ccc(C(=O)N=CC(=O)O)cc4)ncc3F)cc2NC1=O` [Compound 1267], in assay [1] (setting [7]), the IC50 is greater than 10 µM. With `C[C@@H]1Oc2ccc(Nc3nc(NC4=CC=CC(=CNC(=O)OC(C)(C)C)C4)ncc3F)cc2NC1=O` [Compound 1276], the IC50 in assay [1] (setting [7]) and in assay [1] (setting [8]) was less than 10 µM throughout. Take `C[C@@H]1Oc2ccc(Nc3nc(NC4=CC=CC(=CN)C4)ncc3F)cc2NC1=O` [Compound 1279]: the IC50 in assay [1] (setting [7]) and in assay [1] (setting [8]) was less than 10 µM in each case. On to `C[C@H]1Oc2ccc(Nc3nc(Nc4cccc(CN)c4)ncc3F)cc2NC1=O` [Compound 1280], for which the IC50 in assay [1] (setting [3]) and in assay [1] (setting [4]) was less than 10 µM in each case. With “(R)—N2-[3-(N-tert-Butoxycarbonylamino)methylenephenyl]-5-fluoro-N4-(2-methyl-3-oxo-2H,4H-benz[1,4]oxazin-6-yl) [Compound 1277]”, the IC50 in assay [1] (setting [3]) and in assay [1] (setting [4]) was less than 10 µM in each case. Take “(S)-5-Fluoro-[1-(2-hydroxymethyl)-2-trifluoromethylbenzimidazol-5-yl]-N4-(2-methyl-3-oxo-2H,4H-benz[1,4]oxazin-6-yl)-2,4-pyrimidinediamine [Compound 923]”: the IC50 in assay [1] (setting [9]) is less than 10 µM. As for “N2-(2-Aminocarbonylphenyl)-N4-(2,2-dimethyl-3-oxo-4H-5-pyrid[1,4]oxazin-6-yl)-5-fluoro-2,4-pyrimidinediamine [Compound 1316]”, the IC50 in assay [1] (setting [3]) was less than 10 µM; in assay [1] (setting [4]), greater than 10 µM. Consider “N2-(4-Aminocarbonylphenyl)-N4-(2,2-dimethyl-3-oxo-4H-5-pyrid[1,4]oxazin-6-yl)-5-fluoro-2,4-pyrimidinediamine [Compound 1315]”, for which the IC50 in assay [1] (setting [3]) is less than 10 µM.

Regarding “N4-(2,2-Dimethyl-3-oxo-4H-5-pyrid[1,4]oxazin-6-yl)-5-fluoro-N2-(3-methoxycarbonylppyrid-2yl)-2,4-pyrimidinediamine [Compound 1314]”, the IC50 in assay [1] (setting [3]) is less than 10 µM. Take “N4-(2,2-Dimethyl-3-oxo-4H-5-pyrid[1,4]oxazin-6-yl)-5-fluoro-N2-(4-methoxycarbonylphenyl)-2,4-pyrimidinediamine [Compound 1313]”: the IC50 in assay [1] (setting [3]) was less than 10 µM. For the molecule “N4-(2,2-Dimethyl-3-oxo-4H-5-pyrid[1,4]oxazin-6-yl)-5-fluoro-[1-(2-hydroxymethyl)-2-trifluoromethylbenzimidazol-5-yl]-2,4-pyrimidinediamine [Compound 924]”, in assay [1] (setting [9]), the IC50 was less than 10 µM. The same measure, in the same setting: for “N4-(2,2-Dimethyl-3-oxo-4H-5-pyrid[1,4]oxazin-6-yl)-N2-(1-methyl-2-trifluoromethylbenzimidazol-5-yl)-2,4-pyrimidinediamine [Compound 915]” the value was less than 10 µM. Regarding “N4-(2,2-Dimethyl-3-oxo-4H-N4-oxo-5-pyrido[1,4]oxazin-6-yl)-5-fluoro-N2-(3,4,5-trimethoxyphenyl)-2,4-pyrimidinediamine [Compound 1340]”, the IC50 in assay [1] (setting [3]) and in assay [1] (setting [4]) was less than 10 µM in each case. For the molecule “N4-(2,2-Dimethyl-3-oxo-4H-benz[1,4]oxazin-6-yl)-5-fluoro-N2-{1-methyl-2-[(methylsulfonyl)methyl]benzimidazol-5-yl}-2,4-pyrimidinediamine [Compound 967]”, the IC50 is less than 10 µM in assay [1] (CHMC low cell density, 3pt, read-out: LD Tryptase, CHMC, IgE, 3pt) and less than 10 µM in assay [1] (setting [9]). For the molecule “N4-(2,2-Dimethyl-3-oxo-4H-benz[1,4]oxazin-6-yl)-5-fluoro-[1-(2-hydroxymethyl)-2-trifluoromethylbenzimidazol-5-yl]-2,4-pyrimidinediamine [Compound 922]”, the IC50 in assay [1] (setting [9]) is less than 10 µM.

As for “N4-(2,2-Dimethyl-3-oxo-4H-benz[1,4]oxazin-6-yl)-N2-(1-methyl-2-trifluoromethylbenzimidazol-5-yl)-2,4-pyrimidinediamine [Compound 913]”, the IC50 in assay [1] (setting [9]) was less than 10 µM. In the case of “N4-[benzoxathiazin-3(4H)-one-6-yl]2-chloro-5-fluoro-4-pyrimidinea mine [Compound 319]”, in assay [1] (setting [3]), the IC50 was less than 10 µM.
